Assay results from patent EP3710011B1, “PENTACYCLIC TRITERPENES FOR THE TREATMENT OF AN ORAL DISEASE” (PIERRE FABRE MEDICAMENT, priority 2017, dated 2019).
Read-outs that look alike come from different tables or passages of the source.

How the values were obtained:
[1] = test system: kératinocytes humains oraux; assay: RT-qPCR of inflammatory marker expression in oral keratinocytes stimulated with IL-17, IL-22 and TNF-alpha; type: cell-based
Description: (§1) • L'échantillon « Extrait CCV » est obtenu tel que décrit dans l'exemple 1 et est dilué dans du DMSO 0,4% afin d'obtenir une concentration en célastrol de 137 µg/mL; trois doses sont testées, à savoir 10, 30 et 100 ng/mL. • L'échantillon « Célastrol » 150 µg/mL dans du DMSO 0,4 %; trois doses sont testées à savoir 10, 30 et 100 ng/mL.
(§2) Les échantillons contrôles sont les suivants : • L'échantillon témoin négatif « DMSO » (DMSO à 0,4%); et • L'échantillon témoin positif « Inhibiteur JAK » comprenant 10 µM d'inhibiteur JAK (JAK Inhibitor I - CAS 457081-03-7 - Calbiochem).
(§3) La lignée cellulaire utilisée est une lignée de kératinocytes humains oraux (CliniSciences ref.2610-SC). Cette lignée est cultivée à 37 °C, sous atmosphère 5 % de CO2 dans un milieu adapté (Oral Keratinocyte medium OKM supplémenté avec de la pénicilline 100 U/mL et de la streptomycine 100 µg/mL).
(§4) Les kératinocytes humains oraux sont ensemencés dans des puits de plaques à 24 puits (75 000 cellules/puits) et cultivés pendant 24h. Le milieu de culture est alors remplacé par du milieu frais contenant les échantillons à tester, et les cellules sont à nouveau incubées pendant 24h. L'opération est renouvelée à nouveau en présence d'un mix de cytokines stimulatrice des kératinocytes : IL-17, IL-22 et TNF-alpha à 3 ng/ml chacune. Le temps de culture est de 24h pour les expériences de RT-pPCR et de 48 pour les expériences d'ELISA. Les cellules sont ensuite lavées dans une solution de PBS et congelées immédiatement à - 80 °C.
(§5) Les expériences ont été réalisées en triplicats.
L'expression des marqueurs IL-8, CXCL1, DEBF4A, S100A7, IL-36 gamma et MMP9, par les kératinocytes est déterminée par RT-qPCR comme décrit dans la littérature avec des kits de Reverse transcriptase (Roche) et de PCR quantitative. Un témoin positif de PCR (GAPDH), exprimé constitutivement, est réalisé en parallèle afin de normaliser les résultats obtenus.

[2] = test system: kératinocytes humains oraux; assay: ELISA of IL-8, hBD-2 and MMP-9 secreted by oral keratinocytes stimulated with IL-17, IL-22 and TNF-alpha; type: cell-based; details: 48h stimulation; for inhibition at 10 µM: Keratinocyte
Description: as §1, §2, §3, §4, §5
La quantité d'IL8, hBD-2 (DEBF4A) et de MMP-9 sécrétée par les kératinocytes dans le milieu de culture après 48h de stimulation est mesurée par ELISA.

[3] = test system: Staphylococcus aureus CIP4.83; assay: Determination of minimal inhibitory (CMI) and minimal bactericidal (CMB) concentration, liquid micro-method then subculture on agar; type: cell-based; details: for CMB / CMI / CMB (DMSO dilution) / CMI (DMSO dilution): S. aureus; for CMB / CMI: purified sample dissolved in DMSO; for CMB (DMSO dilution): real dilution (DMSO) at the CMB point; for CMI (DMSO dilution): real dilution (DMSO) at the CMI point
Description: • L'échantillon « Extrait CCV » obtenu tel que dans l'exemple 1 est titré à 150 µg/ml en Célastrol, 40 µg/ml en Tingénine A et 20 µg/ml en Tingénine B, dissouts dans du pentylène glycol 100 %. Pour les besoins du dosage, il est dilué à 2 % dans de l'eau pour préparation injectable (PPI). • L'échantillon « Tingénine A » est titré à 150 µg/ml dans du DMSO 10 %. • L'échantillon « Tingénine B » est titré à 150 µg/ml du DMSO 10 %. • L'échantillon « Célastrol » est titré à 150 µ/ml dans du DMSO 10 %.
Les souches bactériennes utilisées sont : • Staphylococcus aureus CIP4.83 entretenue sur milieu gelosé Trypticase-soja à 36 +/- 1 °C. • Fusobacterium nucleatum CIP101130T entretenue sur milieu gélosé Columbia + 5 % de sang de mouton à 36+/-1 °C en anaérobiose
La détermination de la Concentration Minimale Inhibitrice (CMI) est réalisée par micro-méthode en milieu liquide. 100 µL de milieu de culture Muller Hinton sont déposés dans chaque puits d'une microplaque de 96 puits stérile. 100 µL de l'échantillon à tester sont déposés dans la colonne 1 de la microplaque (deux puits par extrait à tester). Des dilutions de raison 2 sont réalisées de la façon suivante : 100 µL sont prélevés dans les puits de la colonne 1 puis ajouté et mélangés aux puits de la colonne 2. Cette opération est répétée jusqu'à la colonne 10. Les 100 µL prélevés dans la colonne 10 sont éliminés. La colonne 11 est utilisée comme témoin positif (milieu de culture + bactérie à tester). La colonne 12 est utilisée comme témoin négatif (milieu de culture seul). La microplaque est ensemencée (hors témoin négatif de croissance). Après une incubation de 16 à 24 h l'observation de la croissance à l'œil nu permet de déterminer une CMI (la plus faible concentration en extrait qui inhibe la croissance).
La détermination de la Concentration Minimale Bactéricide (CMB) est réalisée par repiquage des microplaques CMI sur un milieu Muller Hinton gélosé. Après incubation, la CMB correspond à la plus faible concentration de l'extrait testé pour laquelle on observe une absence de croissance.
Dans les tableaux 1 et 2 présentant les résultats comparatifs des différents échantillons testés sont indiqués : • 1. Pour l'extrait CCV, les CMI/CMB sont des concentrations équivalentes en célastrol. En effet, cet extrait est une solution qui contient majoritairement du Célastrol (Célastrol > 50 %, Tingénine A > 5 % et Tingénine B > 5 %). L'extrait est dissout dans du Pentylène Glycol (PG), on a le % (P/P) correspondant à la dilution réelle au point de CMI ou de CMB, et on en déduit la concentration équivalente en Célastrol grâce au titre (150 µg/ml) quantifié par HPLC. • 2. Pour les échantillons de Célastrol, de Tingénine A et de Tingénine B purifiés et dissouts dans le DMSO, le % mentionné correspond à la dilution réelle au point de CMI ou de CMB. • 3. Pour les solvants de contrôle DMSO et Pentylène Glycol (PG) testés en parallèle, le % correspond à la dilution réelle au point de CMI ou de CMB.

lymphocytes T CD4+ = assay: Anti-TH17 activity: cytokines secreted by CD4+ T lymphocytes activated with anti-CD3/anti-CD28 (Multiplex Immunoassays); type: cell-based, humaines; details: 2 µM
Description: L'échantillon « Extrait CCV » est obtenu tel que dans l'exemple 1 et est dilué dans 0,4 % DMSO afin d'obtenir les différentes concentrations finales suivantes après ajout dans les puits : • Extrait 2 (titré en Célastrol à 9 ng/ml); • Extrait 3 (titré en Célastrol à 30 ng/ml); et • Extrait 4 (titré en Célastrol à 90 ng/ml).
Les échantillons contrôles sont les suivants : • Contrôle négatif 1 (solution DMSO à 0,4 %); et • Contrôle positif 5 : dexaméthasone (Dexa) à 2 µM (concentration finale dans le puits).
Les cellules T humaines ont été isolées à partir de cellules mononuclées de sang de deux donneurs sur Ficoll Paque plus (selon le protocole du fabricant). Les cellules CD4+ sont isolées par tri positif (Kit Miltenyi Biotec (CD4) et colonne LS) et remises en suspension dans du milieu de culture RPMI (Sigma Aldrich : L-Glutamine et sérum foetal bovin à 10 %) additionné de […] de streptomycine et 100 U/mL de pénicilline.
Les Lymphocytes en suspension sont répartis dans des puits de microplaques. […]
La quantité de cytokine IL17A, IFN gamma, IL22, TNF alpha et IL6 sécrétée dans le surnageant de culture des lymphocytes est ensuite mesurée par la méthode Multiplex Immunoassays (tel que notamment décrit dans Jager et al. Clin. Diagn. Lab. Immunol. 2003, 10(1), 133-139).

CC(C)(C)c1nc2c3ccc(F)cc3c3c(=O)[nH]ccc3c2[nH]1 [inhibiteur JAK, JAK Inhibitor I]
expression de l'IL-36 gamma et de la MMP9 ([1]; 10 µM): n'inhibe ni l'IL-36 gamma ni la MMP9 | expression d'IL8, de DEFB4A et de S100A7 ([1]; 10 µM, versus negative control): diminution de l'expression | augmentation de la sécrétion de MMP-9 ([2]; 10 µM): 60% | inhibition at 10 µM ([2]; 10 µM, read-out: inhibition de la sécrétion d'IL-8): 69% | inhibition at 10 µM ([2]; 10 µM, read-out: inhibition de la sécrétion de β-défensine-2): 82%

CC1=C(O)C(=O)C=C2C1=CC=C1[C@@]2(C)CC[C@@]2(C)[C@@H]3C[C@@H](C)C(=O)C[C@]3(C)CC[C@]12C [Tingénine A]
CMB [3]: 2,34 µg/ml | CMI [3]: 1,17 µg/ml | CMB (DMSO dilution) [3]: 0,08% | CMI (DMSO dilution) [3]: 0,08%

CC1=C(O)C(=O)C=C2C1=CC=C1[C@@]2(C)CC[C@@]2(C)[C@@H]3C[C@](C)(C(=O)O)CC[C@]3(C)CC[C@]12C [Célastrol]
CMB [3]: 0,59 µg/ml | CMI [3]: 0,29 µg/ml | CMB (DMSO dilution) [3]: 0,04% | CMI (DMSO dilution) [3]: 0,01% | expression des marqueurs IL-8, DEFBA4, S100A7, IL-36 gamma et MMP9 ([1]; 10, 30 and 100 ng/mL, 24h stimulation): inhibition claire, significative et dose dépendante | inhibition de l'expression du marqueur MMP9 ([2]; at 30 ng/ml): ~40%

C[C@@H]1C[C@H]2[C@@H]3CCC4=CC(=O)C=C[C@]4(C)[C@@]3(F)[C@@H](O)C[C@]2(C)[C@@]1(O)C(=O)CO [dexaméthasone]
surexpression des cytokines IL-17A, IFN gamma, IL-22, TNF alpha et IL-6 (lymphocytes T CD4+): inhibe la surexpression de toutes les cytokines

CC1=C(O)C(=O)C=C2C1=CC=C1[C@@]2(C)CC[C@@]2(C)[C@@H]3C[C@@H](C)C(=O)[C@@H](O)[C@]3(C)CC[C@]12C [Tingénine B, 22 béta-Hydroxy-tingénone]
CMB [3]: 1,17 µg/ml | CMI [3]: 0,59 µg/ml | CMB (DMSO dilution) [3]: 0,08% | CMI (DMSO dilution) [3]: 0,04% | activité anti S. aureus, fois supérieure à celle de la Tingénine A ([3]; ratio versus Tingénine A): 2-4 fois
